# Tests used:
# S. aureus DSM 20231 [1] = assay: Bliss interaction score (quartile over a dose matrix) (fitness difference); higher = more antagonism (negative = synergy)
# Procedure, shortened: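 The Bliss score subtracts expected fitness, the product of the single-drug fitness values, from observed fitness. Fitness is plate-normalised OD595 at entry into stationary phase, relative to the robust no-drug mean and capped at 1, with single-drug fitness inferred from combinations. Summaries are quartiles over technical, biological and donor/recipient replicates.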
# S. pneumoniae D39V = assay: fitness (endpoint OD595 vs no drug) (fraction); higher = more growth
# Procedure, shortened: (§1)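 Fitness compares growth at the stationary-phase transition with the robust mean of no-drug control wells, as a ratio of optical densities. The ratio is capped at 1. Wells of 384-well plates held 30 µl, or 55 µl for S. pneumoniae, inoculated at OD595 0.01. Readings at OD595 every 30 min for 14 h at 37 °C were corrected against the first reading.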
# S. aureus Newman = assay: as above
# Procedure, shortened: as §1
# S. aureus DSM 20231 [2] = assay: as above
# Procedure, shortened: as §1
# [3] = first compound 0.078 µg/mL, partner 0.125 µg/mL
# [4] = first compound 0.078 µg/mL, partner 0.25 µg/mL
# [5] = first compound 0.078 µg/mL, partner 0.5 µg/mL
# [6] = first compound 0.156 µg/mL, partner 0.125 µg/mL
# [7] = first compound 0.156 µg/mL, partner 0.25 µg/mL
# [8] = first compound 0.156 µg/mL, partner 0.5 µg/mL
# [9] = first compound 0.312 µg/mL, partner 0.125 µg/mL
# [10] = first compound 0.312 µg/mL, partner 0.25 µg/mL
# [11] = first compound 0.312 µg/mL, partner 0.5 µg/mL
# [12] = first compound 0.625 µg/mL, partner 0.0156 µg/mL
# [13] = first compound 0.625 µg/mL, partner 0.0312 µg/mL
# [14] = first compound 0.625 µg/mL, partner 0.0625 µg/mL
# [15] = first compound 1.25 µg/mL, partner 0.0156 µg/mL
# [16] = first compound 1.25 µg/mL, partner 0.0312 µg/mL
# [17] = first compound 1.25 µg/mL, partner 0.0625 µg/mL
# [18] = first compound 2.5 µg/mL, partner 0.0156 µg/mL
# [19] = first compound 2.5 µg/mL, partner 0.0312 µg/mL
# [20] = first compound 2.5 µg/mL, partner 0.0625 µg/mL
# 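For Bliss interaction score (quartile over a dose matrix) in this document: first quartile when negative (synergy) and third quartile when positive (antagonism).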
compound,measurement,setting,value
O=C(O)c1cn(C2CC2)c2cc(N3CCNCC3)c(F)cc2c1=O [Ciprofloxacin] + COc1cc2ncnc(Nc3ccc(F)c(Cl)c3)c2cc1OCCCN1CCOCC1 [Gefitinib],Bliss interaction score,S. aureus DSM 20231 [1],-0.336
CO/N=C(\C(=O)N[C@@H]1C(=O)N2C(C(=O)O)=C(COC(C)=O)CS[C@H]12)c1csc(N)n1 [Cefotaxime] + CO/N=C(\C(=O)N[C@@H]1C(=O)N2C(C(=O)[O-])=C(C[N+]3(C)CCCC3)CS[C@H]12)c1csc(N)n1 [Cefepime],fitness,"S. pneumoniae D39V; first compound 0.0018 µg/mL, partner 0.007 µg/mL",≥ 1
same,fitness,"S. pneumoniae D39V; first compound 0.0018 µg/mL, partner 0.0078 µg/mL",≥ 1
same,fitness,"S. pneumoniae D39V; first compound 0.0018 µg/mL, partner 0.014 µg/mL",≥ 1
same,fitness,"S. pneumoniae D39V; first compound 0.0018 µg/mL, partner 0.0155 µg/mL",≥ 1
same,fitness,"S. pneumoniae D39V; first compound 0.0018 µg/mL, partner 0.028 µg/mL",0.93
same,fitness,"S. pneumoniae D39V; first compound 0.0018 µg/mL, partner 0.031 µg/mL",0.926
same,fitness,"S. pneumoniae D39V; first compound 0.0035 µg/mL, partner 0.007 µg/mL",0.983
same,fitness,"S. pneumoniae D39V; first compound 0.0035 µg/mL, partner 0.0078 µg/mL",0.998
same,fitness,"S. pneumoniae D39V; first compound 0.0035 µg/mL, partner 0.014 µg/mL",0.994
same,fitness,"S. pneumoniae D39V; first compound 0.0035 µg/mL, partner 0.0155 µg/mL",0.996
same,fitness,"S. pneumoniae D39V; first compound 0.0035 µg/mL, partner 0.028 µg/mL",0.8
same,fitness,"S. pneumoniae D39V; first compound 0.0035 µg/mL, partner 0.031 µg/mL",0.89
same,fitness,"S. pneumoniae D39V; first compound 0.007 µg/mL, partner 0.007 µg/mL",0.94
same,fitness,"S. pneumoniae D39V; first compound 0.007 µg/mL, partner 0.0078 µg/mL",0.921
same,fitness,"S. pneumoniae D39V; first compound 0.007 µg/mL, partner 0.014 µg/mL",0.96
same,fitness,"S. pneumoniae D39V; first compound 0.007 µg/mL, partner 0.0155 µg/mL",0.891
same,fitness,"S. pneumoniae D39V; first compound 0.007 µg/mL, partner 0.028 µg/mL",0.629
same,fitness,"S. pneumoniae D39V; first compound 0.007 µg/mL, partner 0.031 µg/mL",0.553
same,fitness,S. aureus Newman; [3],0.75
same,fitness,S. aureus Newman; [4],0.695
same,fitness,S. aureus Newman; [5],0.696
same,fitness,S. aureus Newman; [6],0.618
same,fitness,S. aureus Newman; [7],0.577
same,fitness,S. aureus Newman; [8],0.519
same,fitness,S. aureus Newman; [9],0.469
same,fitness,S. aureus Newman; [10],0.415
same,fitness,S. aureus Newman; [11],0.36
same,fitness,"S. aureus Newman; first compound 0.625 µg/mL, partner 0.125 µg/mL",0.206
same,fitness,"S. aureus Newman; first compound 0.625 µg/mL, partner 0.25 µg/mL",0.178
same,fitness,"S. aureus Newman; first compound 0.625 µg/mL, partner 0.5 µg/mL",0.0892
same,fitness,"S. aureus Newman; first compound 1.25 µg/mL, partner 0.125 µg/mL",0.125
same,fitness,"S. aureus Newman; first compound 1.25 µg/mL, partner 0.25 µg/mL",0.0934
same,fitness,"S. aureus Newman; first compound 1.25 µg/mL, partner 0.5 µg/mL",0.049
same,fitness,"S. aureus Newman; first compound 2.5 µg/mL, partner 0.125 µg/mL",0.0454
same,fitness,"S. aureus Newman; first compound 2.5 µg/mL, partner 0.25 µg/mL",0.0501
same,fitness,"S. aureus Newman; first compound 2.5 µg/mL, partner 0.5 µg/mL",0.0407
same,fitness,"S. aureus DSM 20231 [2]; first compound 0.039 µg/mL, partner 0.125 µg/mL",0.782
same,fitness,"S. aureus DSM 20231 [2]; first compound 0.039 µg/mL, partner 0.25 µg/mL",0.847
same,fitness,"S. aureus DSM 20231 [2]; first compound 0.039 µg/mL, partner 0.5 µg/mL",0.824
same,fitness,S. aureus DSM 20231 [2]; [3],0.754
same,fitness,S. aureus DSM 20231 [2]; [4],0.8
same,fitness,S. aureus DSM 20231 [2]; [5],0.772
same,fitness,S. aureus DSM 20231 [2]; [6],0.686
same,fitness,S. aureus DSM 20231 [2]; [7],0.73
same,fitness,S. aureus DSM 20231 [2]; [8],0.753
same,fitness,S. aureus DSM 20231 [2]; [9],0.664
same,fitness,S. aureus DSM 20231 [2]; [10],0.661
same,fitness,S. aureus DSM 20231 [2]; [11],0.71
COc1cccc2c1C(=O)c1c(O)c3c(c(O)c1C2=O)C[C@@](O)(C(=O)CO)C[C@@H]3O[C@H]1C[C@H](N)[C@H](O)[C@H](C)O1 [Doxorubicin] + CO[C@@]12[C@H](COC(N)=O)C3=C(C(=O)C(C)=C(N)C3=O)N1C[C@@H]1N[C@@H]12 [Mitomycin C],fitness,"S. pneumoniae D39V; first compound 0.25 µg/mL, partner 0.001075 µg/mL",0.834
same,fitness,"S. pneumoniae D39V; first compound 0.25 µg/mL, partner 0.002 µg/mL",0.836
same,fitness,"S. pneumoniae D39V; first compound 0.25 µg/mL, partner 0.00215 µg/mL",0.838
same,fitness,"S. pneumoniae D39V; first compound 0.25 µg/mL, partner 0.004 µg/mL",0.707
same,fitness,"S. pneumoniae D39V; first compound 0.25 µg/mL, partner 0.0043 µg/mL",0.681
same,fitness,"S. pneumoniae D39V; first compound 0.25 µg/mL, partner 0.008 µg/mL",0.458
same,fitness,"S. pneumoniae D39V; first compound 0.5 µg/mL, partner 0.001075 µg/mL",0.842
same,fitness,"S. pneumoniae D39V; first compound 0.5 µg/mL, partner 0.002 µg/mL",0.822
same,fitness,"S. pneumoniae D39V; first compound 0.5 µg/mL, partner 0.00215 µg/mL",0.848
same,fitness,"S. pneumoniae D39V; first compound 0.5 µg/mL, partner 0.004 µg/mL",0.664
same,fitness,"S. pneumoniae D39V; first compound 0.5 µg/mL, partner 0.0043 µg/mL",0.671
same,fitness,"S. pneumoniae D39V; first compound 0.5 µg/mL, partner 0.008 µg/mL",0.435
same,fitness,"S. pneumoniae D39V; first compound 1 µg/mL, partner 0.001075 µg/mL",0.81
same,fitness,"S. pneumoniae D39V; first compound 1 µg/mL, partner 0.002 µg/mL",0.696
same,fitness,"S. pneumoniae D39V; first compound 1 µg/mL, partner 0.00215 µg/mL",0.783
same,fitness,"S. pneumoniae D39V; first compound 1 µg/mL, partner 0.004 µg/mL",0.632
same,fitness,"S. pneumoniae D39V; first compound 1 µg/mL, partner 0.0043 µg/mL",0.58
same,fitness,"S. pneumoniae D39V; first compound 1 µg/mL, partner 0.008 µg/mL",0.404
same,fitness,S. aureus Newman; [12],0.669
same,fitness,S. aureus Newman; [13],0.63
same,fitness,S. aureus Newman; [14],0.531
same,fitness,S. aureus Newman; [15],0.692
same,fitness,S. aureus Newman; [16],0.699
same,fitness,S. aureus Newman; [17],0.507
same,fitness,S. aureus Newman; [18],0.672
same,fitness,S. aureus Newman; [19],0.599
same,fitness,S. aureus Newman; [20],0.408
same,fitness,S. aureus DSM 20231 [2]; [12],0.699
same,fitness,S. aureus DSM 20231 [2]; [13],0.659
same,fitness,S. aureus DSM 20231 [2]; [14],0.52
same,fitness,S. aureus DSM 20231 [2]; [15],0.697
same,fitness,S. aureus DSM 20231 [2]; [16],0.641
same,fitness,S. aureus DSM 20231 [2]; [17],0.496
same,fitness,S. aureus DSM 20231 [2]; [18],0.668
same,fitness,S. aureus DSM 20231 [2]; [19],0.61
same,fitness,S. aureus DSM 20231 [2]; [20],0.473

# Source: the supplement of paper PMC10627819
